Drawing on patent US20190191690A1, “AGENTS AND DEVICE FOR COMBATING PESTS, IN […] AND MICE, AND METHOD FOR USING THE AGENTS” (priority 2016, published 2019), this text covers lethal dose and development of resistance for three compounds.

In data set [1] the test system is mice. Description: lethal dose in mice. The data set is classed as in vivo. How it is done:
The grayanotoxins have been described in exhaustive terms in literature and the chemical formulae are known. It has become evident that the effects of the substance occur even for low concentrations of the active agent. The lethal dose for grayanotoxin 1 in mice is approx. 5.1 mg per kg live weight and for grayanotoxin 3 approx. 4.9 mg per kg live weight. The substance as an active agent carrier may contain natural and/or synthetic carrier substances or substance mixtures. Natural carrier substances may be preferably selected from the group of natural oils, waxes and honey and their mixtures, emulsions, solutions or dispersions.

The subject of data set [2] is mice. Description: experiments on development of resistance in mice. Format: in vivo.

For `CC(=O)O[C@@H]1[C@H]2CC[C@H]3[C@@](C)(O)[C@@H]4C[C@H](O)C(C)(C)[C@@]4(O)[C@H](O)C[C@@]13C[C@@]2(C)O` [grayanotoxin 1], the lethal dose result in the data set with mice [1] is recorded as “approx. 5.1 mg per kg live weight”. Still for that read-out and setting: in the case of grayanotoxin 3 it was “approx. 4.9 mg per kg live weight”.

As for grayanotoxin, the development of resistance entry with mice [2] is listed as “rare for mice to develop a resistance”.
